This passage reports Ki and EC50 results from ChEMBL document CHEMBL4190389, “Synthesis and activity of di- or trisubstituted N-(phenoxyalkyl)- or N-{2-[2-(phenoxy)ethoxy]ethyl}piperazine derivatives on the central nervous system” (Bioorg Med Chem Lett, 2018).

One assay has as its target D(2) dopamine receptor (Homo sapiens, UniProt P14416). The assay can be described thus: Binding affinity to D2 receptor (unknown origin).
The target of assay [1] is T1, Adrenergic receptor alpha-1 (Rattus norvegicus, UniProt P15823+P23944+P43140).
T1 sequence (P15823 whole entry): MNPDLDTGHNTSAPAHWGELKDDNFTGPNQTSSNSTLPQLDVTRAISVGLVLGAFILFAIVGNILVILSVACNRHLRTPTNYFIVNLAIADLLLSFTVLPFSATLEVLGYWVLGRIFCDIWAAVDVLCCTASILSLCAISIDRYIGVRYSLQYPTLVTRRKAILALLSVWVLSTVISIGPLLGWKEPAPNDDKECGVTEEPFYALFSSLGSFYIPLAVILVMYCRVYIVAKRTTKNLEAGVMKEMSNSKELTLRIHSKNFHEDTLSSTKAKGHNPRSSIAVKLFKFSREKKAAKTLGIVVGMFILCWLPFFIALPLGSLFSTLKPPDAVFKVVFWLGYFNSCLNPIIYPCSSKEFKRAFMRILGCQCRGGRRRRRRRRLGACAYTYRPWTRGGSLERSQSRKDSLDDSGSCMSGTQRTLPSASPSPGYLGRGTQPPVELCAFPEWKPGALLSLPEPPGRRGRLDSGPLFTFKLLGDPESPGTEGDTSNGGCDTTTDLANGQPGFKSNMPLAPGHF
T1 sequence (P23944 whole entry): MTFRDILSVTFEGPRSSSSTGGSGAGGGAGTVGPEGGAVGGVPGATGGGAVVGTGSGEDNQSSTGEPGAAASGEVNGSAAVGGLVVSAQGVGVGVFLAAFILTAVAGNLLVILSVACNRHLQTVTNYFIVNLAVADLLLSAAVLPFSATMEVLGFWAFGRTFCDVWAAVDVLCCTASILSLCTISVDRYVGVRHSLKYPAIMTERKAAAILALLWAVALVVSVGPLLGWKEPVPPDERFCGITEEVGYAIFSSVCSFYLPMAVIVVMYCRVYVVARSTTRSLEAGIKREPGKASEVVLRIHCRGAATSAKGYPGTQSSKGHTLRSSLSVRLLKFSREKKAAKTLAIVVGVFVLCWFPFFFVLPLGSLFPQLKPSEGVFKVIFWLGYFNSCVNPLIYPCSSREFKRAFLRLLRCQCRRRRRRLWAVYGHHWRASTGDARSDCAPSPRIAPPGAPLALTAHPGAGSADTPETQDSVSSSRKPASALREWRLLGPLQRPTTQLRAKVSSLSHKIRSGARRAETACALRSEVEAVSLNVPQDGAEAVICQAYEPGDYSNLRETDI
T1 sequence (P43140 whole entry): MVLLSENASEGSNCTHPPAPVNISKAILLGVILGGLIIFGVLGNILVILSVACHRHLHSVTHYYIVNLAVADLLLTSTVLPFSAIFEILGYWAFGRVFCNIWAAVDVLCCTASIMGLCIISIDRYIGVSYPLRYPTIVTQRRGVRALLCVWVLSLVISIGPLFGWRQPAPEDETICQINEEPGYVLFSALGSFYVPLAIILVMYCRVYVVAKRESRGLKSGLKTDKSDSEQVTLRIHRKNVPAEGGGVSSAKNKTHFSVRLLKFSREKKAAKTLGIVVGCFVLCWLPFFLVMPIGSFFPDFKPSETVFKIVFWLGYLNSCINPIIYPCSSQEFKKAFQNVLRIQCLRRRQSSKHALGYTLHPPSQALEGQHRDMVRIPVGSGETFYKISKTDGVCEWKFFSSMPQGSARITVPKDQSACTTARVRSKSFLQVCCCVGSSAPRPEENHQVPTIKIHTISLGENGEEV
The assay can be described thus: Displacement of [3H]prazosin from rat cerebral cortex adrenergic receptor alpha1 by liquid scintillation counting method. Background: Loss of bound radioactivity is the signal in a displacement assay; it reports binding, not function.

In assay [2] the target is T2, 5-hydroxytryptamine receptor 2A (Homo sapiens, UniProt P28223). Briefly: Binding affinity to 5-HT2A receptor (unknown origin).
Assay [3] concerns the target T2, 5-hydroxytryptamine receptor 2A. The assay can be described thus: Agonist activity at human 5-HT2A receptor expressed in CHO-K1 cells co-expressing Galpha16 assessed as increase in calcium mobilization measured for 30 secs by aequorin-derived luminescence assay. Type of assay: functional, cell-based. For orientation: Calcium assays in cells follow changes in intracellular calcium, usually with a dye or a luminescent sensor.

Assay [4] shares this target. Briefly: Displacement of [3H]-ketanserin from recombinant human 5-HT2A receptor after 60 mins by liquid scintillation counting method.
Assay [5] deals with T3, 5-hydroxytryptamine receptor 1A (Rattus norvegicus, UniProt P19327).
T3 sequence (P19327 whole entry): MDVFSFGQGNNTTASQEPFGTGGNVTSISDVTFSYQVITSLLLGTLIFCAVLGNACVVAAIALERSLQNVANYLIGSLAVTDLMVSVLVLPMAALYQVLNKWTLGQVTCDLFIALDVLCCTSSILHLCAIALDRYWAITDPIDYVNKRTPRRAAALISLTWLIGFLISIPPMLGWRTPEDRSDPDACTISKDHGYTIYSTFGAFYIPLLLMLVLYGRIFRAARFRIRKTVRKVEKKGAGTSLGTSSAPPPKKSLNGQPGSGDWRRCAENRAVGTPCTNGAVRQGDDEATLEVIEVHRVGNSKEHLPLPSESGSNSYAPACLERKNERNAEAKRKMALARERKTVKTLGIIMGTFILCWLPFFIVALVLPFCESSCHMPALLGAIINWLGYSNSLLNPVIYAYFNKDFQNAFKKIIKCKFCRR
Briefly: Displacement of [3H]8-OH-DPAT from Wistar rat 5-HT1A receptor after 20 mins by liquid scintillation counting method.

The target of assay [6] is 5-hydroxytryptamine receptor 7 (Homo sapiens, UniProt P34969). The assay can be described thus: Displacement of [3H]-LSD from recombinant human 5-HT7 receptor after 60 mins by liquid scintillation counting method.
Assay [7] deals with T4, Adrenergic receptor alpha-2 (Rattus norvegicus, UniProt P22086+P19328+P22909).
T4 sequence (P22086 whole entry): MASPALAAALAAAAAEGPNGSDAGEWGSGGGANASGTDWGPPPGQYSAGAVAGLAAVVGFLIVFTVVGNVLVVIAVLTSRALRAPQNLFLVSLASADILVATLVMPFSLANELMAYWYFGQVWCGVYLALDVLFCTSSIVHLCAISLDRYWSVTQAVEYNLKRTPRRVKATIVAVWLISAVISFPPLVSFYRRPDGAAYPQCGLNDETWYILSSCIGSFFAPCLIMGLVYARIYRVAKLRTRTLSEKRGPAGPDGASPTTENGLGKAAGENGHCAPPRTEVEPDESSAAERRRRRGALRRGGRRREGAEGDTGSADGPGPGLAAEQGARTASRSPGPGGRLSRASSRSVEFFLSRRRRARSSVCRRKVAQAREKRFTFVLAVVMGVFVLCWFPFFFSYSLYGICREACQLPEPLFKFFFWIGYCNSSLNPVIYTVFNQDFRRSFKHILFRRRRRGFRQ
T4 sequence (P19328 whole entry): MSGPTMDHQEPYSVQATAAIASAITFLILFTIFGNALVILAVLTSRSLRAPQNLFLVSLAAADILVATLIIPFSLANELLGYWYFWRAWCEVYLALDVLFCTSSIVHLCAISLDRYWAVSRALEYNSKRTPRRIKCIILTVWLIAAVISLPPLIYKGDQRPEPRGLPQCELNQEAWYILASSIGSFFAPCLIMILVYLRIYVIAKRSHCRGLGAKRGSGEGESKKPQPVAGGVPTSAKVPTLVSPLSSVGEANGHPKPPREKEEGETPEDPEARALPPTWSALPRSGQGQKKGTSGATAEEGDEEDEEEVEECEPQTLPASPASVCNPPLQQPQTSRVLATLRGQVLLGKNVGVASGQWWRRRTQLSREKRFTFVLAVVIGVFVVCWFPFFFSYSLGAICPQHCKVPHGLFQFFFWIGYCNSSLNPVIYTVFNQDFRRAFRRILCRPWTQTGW
T4 sequence (P22909 whole entry): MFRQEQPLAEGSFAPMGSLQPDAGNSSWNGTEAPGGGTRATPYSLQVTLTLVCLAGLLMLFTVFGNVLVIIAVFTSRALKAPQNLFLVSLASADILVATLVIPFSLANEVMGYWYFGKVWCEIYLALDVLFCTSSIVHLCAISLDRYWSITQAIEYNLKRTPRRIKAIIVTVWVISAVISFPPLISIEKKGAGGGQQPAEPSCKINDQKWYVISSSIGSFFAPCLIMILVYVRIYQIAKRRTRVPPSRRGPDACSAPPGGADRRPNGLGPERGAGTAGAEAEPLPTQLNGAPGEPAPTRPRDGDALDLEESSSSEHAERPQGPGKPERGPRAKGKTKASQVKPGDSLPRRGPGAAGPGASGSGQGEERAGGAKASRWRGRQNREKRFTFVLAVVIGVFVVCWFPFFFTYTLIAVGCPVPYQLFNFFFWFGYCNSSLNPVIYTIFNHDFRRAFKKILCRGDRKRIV
Briefly: Displacement of [3H]clonidine from rat cerebral cortex adrenergic receptor alpha2 by liquid scintillation counting method.

In assay [8] the target is T5, 5-hydroxytryptamine receptor 1A (Homo sapiens, UniProt P08908).
T5 sequence (P08908 whole entry): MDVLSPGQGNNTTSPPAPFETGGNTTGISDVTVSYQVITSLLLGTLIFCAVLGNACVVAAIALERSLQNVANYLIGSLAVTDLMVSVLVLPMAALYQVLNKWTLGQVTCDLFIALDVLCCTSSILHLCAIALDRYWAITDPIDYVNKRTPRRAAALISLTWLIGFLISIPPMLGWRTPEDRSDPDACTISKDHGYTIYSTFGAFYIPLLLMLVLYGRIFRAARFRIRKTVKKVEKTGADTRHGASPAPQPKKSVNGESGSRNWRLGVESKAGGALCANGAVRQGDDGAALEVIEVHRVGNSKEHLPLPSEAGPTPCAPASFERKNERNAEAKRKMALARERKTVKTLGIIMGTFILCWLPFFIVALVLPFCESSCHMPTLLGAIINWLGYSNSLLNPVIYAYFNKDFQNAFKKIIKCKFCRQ
The assay can be described thus: Binding affinity to 5-HT1A receptor (unknown origin).

T2 sequence (P28223 whole entry): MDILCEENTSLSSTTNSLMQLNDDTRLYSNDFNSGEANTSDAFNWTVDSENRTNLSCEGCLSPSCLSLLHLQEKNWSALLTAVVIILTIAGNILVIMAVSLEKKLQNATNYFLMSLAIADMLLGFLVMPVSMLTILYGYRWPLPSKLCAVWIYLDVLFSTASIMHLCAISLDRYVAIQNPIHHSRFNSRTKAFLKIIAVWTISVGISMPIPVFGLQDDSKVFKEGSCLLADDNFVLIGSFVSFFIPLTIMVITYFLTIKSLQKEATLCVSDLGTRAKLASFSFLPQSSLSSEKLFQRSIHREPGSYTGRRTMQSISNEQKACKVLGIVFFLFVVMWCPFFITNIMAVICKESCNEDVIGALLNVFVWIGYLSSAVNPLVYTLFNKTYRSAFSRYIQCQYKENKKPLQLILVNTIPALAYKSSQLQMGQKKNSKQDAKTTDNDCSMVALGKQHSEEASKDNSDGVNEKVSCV
Sequence of 5-hydroxytryptamine receptor 7 (P34969 whole entry): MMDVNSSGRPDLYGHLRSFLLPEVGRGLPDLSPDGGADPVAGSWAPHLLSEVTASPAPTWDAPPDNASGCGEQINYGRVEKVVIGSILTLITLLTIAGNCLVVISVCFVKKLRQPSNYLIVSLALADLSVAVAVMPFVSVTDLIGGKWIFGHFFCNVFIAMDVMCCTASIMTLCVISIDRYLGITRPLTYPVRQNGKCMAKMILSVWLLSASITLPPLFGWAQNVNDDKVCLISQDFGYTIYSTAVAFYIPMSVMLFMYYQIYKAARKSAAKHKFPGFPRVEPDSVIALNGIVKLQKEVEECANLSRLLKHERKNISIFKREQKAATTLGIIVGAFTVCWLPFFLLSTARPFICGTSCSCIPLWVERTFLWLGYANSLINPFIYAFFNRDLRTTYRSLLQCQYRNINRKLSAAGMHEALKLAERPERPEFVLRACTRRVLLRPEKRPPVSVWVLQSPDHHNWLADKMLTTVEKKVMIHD
Sequence of D(2) dopamine receptor (P14416 whole entry): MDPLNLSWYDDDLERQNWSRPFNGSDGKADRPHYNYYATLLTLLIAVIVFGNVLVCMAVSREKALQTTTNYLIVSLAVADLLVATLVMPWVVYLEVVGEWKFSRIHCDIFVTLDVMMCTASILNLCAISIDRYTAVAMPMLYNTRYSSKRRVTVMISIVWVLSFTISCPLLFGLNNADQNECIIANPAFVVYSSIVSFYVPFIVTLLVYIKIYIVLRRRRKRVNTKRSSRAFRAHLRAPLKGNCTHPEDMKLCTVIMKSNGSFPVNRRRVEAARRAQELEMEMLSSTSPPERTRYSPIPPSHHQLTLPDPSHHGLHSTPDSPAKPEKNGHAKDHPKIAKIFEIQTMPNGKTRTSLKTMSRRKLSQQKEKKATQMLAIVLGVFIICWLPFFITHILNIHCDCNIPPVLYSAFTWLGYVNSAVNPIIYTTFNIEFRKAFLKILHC

One may read the Ki as a measure of affinity in units of concentration, obtained from inhibition or displacement. As for `OCCOCCN1CCN(C(c2ccccc2)c2ccc(Cl)cc2)CC1` (stereo not given) [HYDROXYZINE], the Ki came out at 0.378 µM on D(2) dopamine receptor, 0.3 µM in assay [1] and 0.05 µM in [2].

By EC50 is commonly meant the concentration that produces a half-maximal response. For the compound `CC(N)Cc1c[nH]c2ccc(O)cc12` (stereo not given), the 50% effective concentration (EC50) in [3] was 0.002 µM.

`COc1ccccc1N1CCN(CCCOc2c(C)cccc2C)CC1.Cl`: the inhibitory constant (Ki) in [4] turned out to be 0.192 µM; in assay [5], 0.0007 µM; in [6] it was 0.026 µM; in assay [7], 0.341 µM.

As to `COc1ccccc1N1CCN(CCCNc2cc(=O)n(C)c(=O)n2C)CC1`, the values for the inhibition constant Ki in [1] and in assay [8] were 0.1279 µM and 0.213 µM, respectively.
